Among the data in US11596639B2, “Substituted indole Mcl-1 inhibitors” (Vanderbilt University, priority 2016, dated 2023) are Ki and GI50 values, retold here.

Each structure is given as a SMILES string. Like-named read-outs stand apart in the source and are kept apart here.

One assay addresses Mcl-1 (Homo sapiens (Human), UniProt Q07820). Put plainly: Fluorescence polarization anisotropy (FPA) competition assay, FITC-Bak or FITC-Bim BH3 peptide. It counts as binding. Particulars: read-out: Ki for Inhibition of Mcl-1 by FPA assay. (Polarisation of emitted light reports the rotation of a fluorescent probe.)
The test system of assay [1] is H929 human cancer cell lines. Put plainly: Cellular viability / proliferation (Cell TiterGlo, 72 h). It counts as cell-based. In short, it runs like this: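 1,000 cells/well, 10% FBS medium; compound added at 24 h, 2-fold dilutions from 50 μM top, DMSO <1% final. 72 h exposure, CellTiterGlo 30 min RT dark, luminescence read. IC50 by 4-parameter fit.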
(In general: In ATP-based viability assays light output follows the ATP content of the culture.)

Where [2] appears, read: H929 cells, 72 h, Cell TiterGlo, 10% FBS, read-out: GI50 on cellular proliferation of H929 human cancer cell lines.
The mark [3] stands for this setting: Homo sapiens, NCI-H929, 72 h, read-out: GI50 on cellular proliferation of H929 human cancer cell lines, H929 cells, 72 h, Cell TiterGlo, 10% FBS.

Chain of Mcl-1 (Q07820 172-327): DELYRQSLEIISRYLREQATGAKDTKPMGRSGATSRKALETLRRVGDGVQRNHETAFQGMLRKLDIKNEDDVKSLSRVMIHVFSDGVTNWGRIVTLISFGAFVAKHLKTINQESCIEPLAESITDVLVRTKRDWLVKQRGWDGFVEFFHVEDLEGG

The Ki is a measure of affinity in units of concentration, obtained from inhibition or displacement. As for `COCCOc1ccc(N2C[C@@H](C)n3c(c(CCCOc4cc(C)c(Cl)c(C)c4)c4ccc(Cl)c(-c5c(C)nn(C)c5C)c43)C2=O)c2cc(C(=O)O)n(C)c12` [Example 323, (M, R)-4-(7-Chloro-10-(3-(4-chloro-3,5-dimethylphenoxy)propyl)-4-methyl-1-oxo-6-(1,3,5-trimethyl-1H-pyrazol-4-yl)-3,4-dihydropyrazino[1,2-a]indol-2(1H)-yl)-7-(2-methoxyethoxy)-1-methyl-1H-indole-2-carboxylic acid], the Ki on Mcl-1 is below 1 nM. Moreover, in assay [1] (setting [2]), the GI50 came out at 1500 nM.

`COc1ccc(N2C[C@@H](C)n3c(c(CCCOc4cc(C)c(Cl)c(C)c4)c4ccc(Cl)c(-c5c(C)nn(C)c5C)c43)C2=O)c2cc(C(=O)O)n(C)c12` [Example 344, (M, R)-4-(7-Chloro-10-(3-(4-chloro-3,5-dimethylphenoxy)propyl)-4-methyl-1-oxo-6-(1,3,5-trimethyl-1H-pyrazol-4-yl)-3,4-dihydropyrazino[1,2-a]indol-2(1H)-yl)-7-methoxy-1-methyl-1H-indole-2-carboxylic acid]: the Ki at Mcl-1 is below 1 nM. Besides, in assay [1] (setting [2]), the GI50 turned out to be 1300 nM.

Take `Cc1cc(OCCCc2c3n(c4c(-c5c(C)nn(C)c5C)c(Cl)ccc24)[C@H](C)CN(c2nn(C)c4c(C(=O)O)cccc24)C3=O)cc(C)c1Cl` [Example 165, (R)-3-(7-Chloro-10-(3-(4-chloro-3,5-dimethylphenoxy)propyl)-4-methyl-1-oxo-6-(1,3,5-trimethyl-1H-pyrazol-4-yl)-3,4-dihydropyrazino[1,2-a]indol-2(1H)-yl)-1-methyl-1H-indazole-7-carboxylic acid]: the Ki at Mcl-1 is 1 nM. Besides, in assay [1] (setting [3]), the GI50 is 1200 nM.

On to `Cc1cc(OCCCc2c3n(c4c(-c5c(C)nn(C)c5C)c(Cl)ccc24)[C@H](C)CN(c2cn(C)c4cc(-c5nnco5)ccc24)C3=O)cc(C)c1Cl` [Example 343, (R)-7-Chloro-10-(3-(4-chloro-3,5-dimethylphenoxy)propyl)-4-methyl-2-(1-methyl-6-(1,3,4-oxadiazol-2-yl)-1H-indol-3-yl)-6-(1,3,5-trimethyl-1H-pyrazol-4-yl)-3,4-dihydropyrazino[1,2-a]indol-1(2H)-one], for which the Ki on Mcl-1 came to 3.7 nM. For the same compound, the GI50 in assay [1] (setting [3]) came out at 3600 nM.

As to `COCCN1CCN(Cc2nc(C)c(-c3c(Cl)ccc4c(CCCOc5cc(C)c(Cl)c(C)c5)c5n(c34)[C@H](C)CN(c3cn(C)c4ccc(C(=O)O)cc34)C5=O)c(C)n2)CC1` [Example 439, (R)-3-(7-Chloro-10-(3-(4-chloro-3,5-dimethylphenoxy)propyl)-6-(2-((4-(2-methoxyethyl)piperazin-1-yl)methyl)-4,6-dimethylpyrimidin-5-yl)-4-methyl-1-oxo-34-dihydropyrazino[1,2-a]indol-2(1H)-yl)-1-methyl-1H-indole-5-carboxylic acid], the Ki on Mcl-1 was found to be 1.9 nM. Further, the GI50 in assay [1] (setting [2]) was below 200 nM.

With `Cc1cc(OCCCc2c3n(c4c(-c5c(C)nn(C)c5C)c(Cl)ccc24)[C@H](C)CN(c2cn(C)c4ccc(C(=O)Nc5ccccc5)cc24)C3=O)cc(C)c1Cl` [Example 285, 3-[(4R)-7-chloro-10-[3-(4-chloro-3,5-dimethyl-phenoxy)propyl]-4-methyl-1-oxo-6-(1,3,5-trimethylpyrazol-4-yl)-3,4-dihydropyrazino[1,2-a]indol-2-yl]-1-methyl-N-phenyl-indole-5-carboxamide], on Mcl-1, the Ki is below 1 nM. Moreover, in assay [1] (setting [3]), the GI50 was 5300 nM.

`Cc1cc(OCCCc2c3n(c4c(-c5c(C)nn(C)c5C)c(Cl)ccc24)[C@H](C)CN(c2cc4cc(C(=O)O)ccc4n2C)C3=O)cc(C)c1Cl` [Example 174, 2-[(4R)-7-chloro-10-[3-(4-chloro-3,5-dimethyl-phenoxy)propyl]-4-methyl-1-oxo-6-(1,3,5-trimethylpyrazol-4-yl)-3,4-dihydropyrazino[1,2-a]indol-2-yl]-1-methyl-indole-5-carboxylic acid]: on Mcl-1, the Ki was determined as 4.2 nM. In addition, the GI50 in assay [1] (setting [3]) worked out at 6300 nM.

Regarding `COc1ccc(Cn2c(C(=O)O)cc3cccc(N4C[C@@H](C)n5c(c(CCCOc6cc(C)c(Cl)c(C)c6)c6ccc(Cl)c(-c7c(C)nn(C)c7C)c65)C4=O)c32)nc1` [Example 382, (R)-7-(7-Chloro-10-(3-(4-chloro-3,5-dimethylphenoxy)propyl)-4-methyl-1-oxo-6-(1,3,5-trimethyl-1H-pyrazol-4-yl)-3,4-dihydropyrazino[1,2-a]indol-2(1H)-yl)-1-((5-methoxypyridin-2-yl)methyl)-1H-indole-2-carboxylic acid], the Ki on Mcl-1 is 1.2 nM. In addition, in assay [1] (setting [3]), the GI50 worked out at 750 nM.

For `COc1cc(C(=O)O)cc(N2CCCn3c(c(CCCOc4cc(C)c(Cl)c(C)c4)c4ccc(Cl)c(-c5c(C)nn(C)c5C)c43)C2=O)c1OCCOc1ccccc1F` [Example 65, 3-[8-Chloro-11-[3-(4-chloro-3,5-dimethyl-phenoxy)propyl]-1-oxo-7-(1,3,5-trimethylpyrazol-4-yl)-4,5-dihydro-3H-[1,4]diazepino[1,2-a]indol-2-yl]-4-[2-(2-fluorophenoxy)ethoxy]-5-methoxy-benzoic acid], the Ki on Mcl-1 came out at 3.1 nM. Besides, in assay [1] (setting [3]), the GI50 was 5500 nM.

With `Cc1cc(OCCCc2c3n(c4c(-c5c(C)ncnc5C)c(Cl)ccc24)CCCN(c2ccnc4ccc(C(=O)O)cc24)C3=O)cc(C)c1Cl` [Example 220, 4-[8-Chloro-11-[3-(4-chloro-3,5-dimethyl-phenoxy)propyl]-7-(4,6-dimethylpyrimidin-5-yl)-1-oxo-4,5-dihydro-3H-[1,4]diazepino[1,2-a]indol-2-yl]quinoline-6-carboxylic acid], the Ki at Mcl-1 was below 1 nM. The GI50 in assay [1] (setting [3]) is 2000 nM.

For the compound `Cc1cc(OCCCc2c3n(c4c(-c5c(C)nn(C)c5C)c(Cl)ccc24)CCCN(c2cc(C(=O)O)cc4c2ccn4S(C)(=O)=O)C3=O)cc(C)c1Cl` [Example 32, 4-(8-Chloro-11-(3-(4-chloro-3,5-dimethylphenoxy)propyl)-1-oxo-7-(1,3,5-trimethyl-1H-pyrazol-4-yl)-4,5-dihydro-1H-[1,4]diazepino[1,2-a]indol-2(3H)-yl)-1-(methylsulfonyl)-1H-indole-6-carboxylic acid], the Ki at Mcl-1 is below 1 nM. In assay [1] (setting [3]), the GI50 turned out to be 7600 nM.

For `Cc1cc(OCCCc2c3n(c4c(-c5c(C)nn(C)c5C)c(Cl)ccc24)CCCN(c2cc(C(=O)O)cc4cnn(C)c24)C3=O)cc(C)c1Cl` [Example 123, 7-(8-Chloro-11-(3-(4-chloro-3,5-dimethylphenoxy)propyl)-1-oxo-7-(1,3,5-trimethyl-1H-pyrazol-4-yl)-4,5-dihydro-1H-[1,4]diazepino[1,2-a]indol-2(3H)-yl)-1-methyl-1H-indazole-5-carboxylic acid], the Ki on Mcl-1 was below 1 nM. The GI50 in assay [1] (setting [3]) came to 6900 nM.

`Cc1cc(OCCCc2c3n(c4c(-c5c(C)nn(C)c5C)c(Cl)ccc24)[C@H](C)CN(c2cccc4cc(C(=O)O)n(Cc5nccs5)c24)C3=O)cc(C)c1Cl` [Example 298, 7-[(4R)-7-chloro-10-[3-(4-chloro-3,5-dimethyl-phenoxy)propyl]-4-methyl-1-oxo-6-(1,3,5-trimethylpyrazol-4-yl)-3,4-dihydropyrazino[1,2-a]indol-2-yl]-1-(thiazol-2-ylmethyl)indole-2-carboxylic acid]: on Mcl-1, the Ki is below 1 nM. The GI50 in assay [1] (setting [3]) was 290 nM.
